Laboratory results reported in patent publication US4356185A, “Thiazoles” (John Wyeth & Brother Limited, priority 1980, dated 1982).
Several values for one entry are separate records, joined by “and”; a condition that tells them apart may be missing. Equal entries are not always repeated.

Test system: ear edema (croton oil irritant mixture)
Test: anti-inflammatory activity against croton oil-induced ear edema (based on Tonelli et al), topical
Type: in vivo, Sprague-Dawley female rats
Settings: right ear, in irritant mixture, 6 hours
Protocol: Compounds of formula I were tested for anti-inflammatory activity by the following procedure based on Tonelli et al, Endocrinology 77, 625 (1965):
Sprague-Dawley female rats, weighing 60 to 70 grams, are used in groups of 10. Ear edema is induced by inuncting both sides of the ear with an irritant mixture. This mixture containing 1% croton oil, 20% pyridine, 5% water and 74% diethyl ether, with or without test compound, is applied only once and only to the right ear. Six hours later the animals are sacrificed; a 9 mm diameter portion of both ears is punched out with a cork borer and weighed. The anti-inflammatory activity of the test agent is assessed by expressing the percent of the difference in average weight increase between the ears of the control groups and of the treated group. [formula]
Results found for representative compounds of formula I are tabulated below, together with results found in 3 tests for the preferred compound reported by Brown et al in J. Med. Chem.(loc-cit)namely 4-(p-chlorophenyl)-2-phenylthiazole-5-acetic acid (B): […]

SMILES | % Inhibition (dose 50 μg) | % Inhibition (dose 500 μg) | % Inhibition (dose 2.5 mg) | % Inhibition (dose 5 mg)
CCCCC(=O)Oc1ccc(-c2nc(-c3ccc(Cl)cc3)c(CC(=O)O)s2)cc1 [R = COC4 H9, 4-(4-Chlorophenyl)-2-(4-Valeryloxyphenyl)thiazole-5-acetic acid] | 41% | 54% | 71% | 87%
O=C(O)Cc1sc(-c2ccccc2)nc1-c1ccc(Cl)cc1 [4-(p-chlorophenyl)-2-phenylthiazole-5-acetic acid, reference compound] |  |  | 93% and 79% and 89% | 92% and 93%
CC(=O)Oc1ccc(-c2nc(-c3ccc(Cl)cc3)c(CC(=O)O)s2)cc1 [R = COCH3, 2-(4-Acetoxyphenyl)-4-(4-chlorophenyl)thiazole-5-acetic acid] | -14% | 41% | 85% | 100%
